Counter-ions that a name gives are not always drawn.

Usually IC50 stands for the midpoint of a concentration-inhibition curve. Lower therefore signals higher potency.

The first test concerns the target T1, IRAK4 (Homo sapiens, UniProt Q9NWZ3).
T1 sequence (Q9NWZ3 1-460): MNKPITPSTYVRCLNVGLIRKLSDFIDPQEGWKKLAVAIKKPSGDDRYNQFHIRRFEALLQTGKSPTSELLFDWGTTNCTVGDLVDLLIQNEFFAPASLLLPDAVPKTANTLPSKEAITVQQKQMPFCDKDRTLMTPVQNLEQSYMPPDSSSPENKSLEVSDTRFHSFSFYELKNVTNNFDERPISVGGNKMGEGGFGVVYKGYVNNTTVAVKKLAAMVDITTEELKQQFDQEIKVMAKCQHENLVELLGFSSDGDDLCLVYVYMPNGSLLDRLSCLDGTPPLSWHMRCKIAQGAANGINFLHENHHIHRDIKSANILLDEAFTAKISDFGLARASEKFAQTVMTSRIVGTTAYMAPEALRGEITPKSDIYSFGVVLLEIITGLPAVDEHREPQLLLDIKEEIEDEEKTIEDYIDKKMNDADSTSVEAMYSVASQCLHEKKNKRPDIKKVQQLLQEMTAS
Briefly: biochemical.
Conditions: not given
Compound `Cn1ccc(NC(=O)c2cn3cc([C@@]45CC[C@@](C)(C4)OC5)nc3cc2OC2CCC2)n1` (single isomer, unassigned) [Example 610] gave an IC50 of 0.0008 µM.

Compound `CC(C)Oc1cc2nc([C@]34CC[C@H](C3)OC4)cn2cc1C(=O)Nc1cnn2cccnc12` (single isomer, unassigned) [Example 583] gave an IC50 of 0.0008 µM.

On to `COc1cccc(NC(=O)c2cn3cc(C4CCOCC4)nc3cc2OCCC2CCOC2)n1` (stereo not shown) [Example 435, N-(6-methoxypyridin-2-yl)-2-(tetrahydro-2H-pyran-4-yl)-7-(2-(tetrahydrofuran-3-yl)ethoxy)imidazo[1,2-a]pyridine-6-carboxamide], for which half-maximal inhibition (IC50) required 0.0051 µM.

`O=C(Nc1cccn(C(F)F)c1=O)c1cn2cc(C3CC3)nc2cc1OC1CCOC1` (stereo not shown) [Example 459, 2-Cyclopropyl-N-(1-(difluoromethyl)-2-oxo-1,2-dihydropyridin-3-yl)-7-((tetrahydrofuran-3-yl)oxy)imidazo[1,2-a]pyridine-6-carboxamide] gave an IC50 of 0.0084 µM.

In turn, `CCc1ncsc1NC(=O)c1cn2cc(C3CCOCC3)nc2cc1OC` [Example 104] returned an IC50 of 0.0476 µM.

Turning to `CC(C)Oc1nc2nc(C34COC(C)(C3)C4)cn2cc1C(=O)Nc1cccn2cnnc12` [Example 409, N-([1,2,4]triazolo[4,3-a]pyridin-8-yl)-7-isopropoxy-2-(1-methyl-2-oxabicyclo[2.1.1]hexan-4-yl)imidazo[1,2-a]pyrimidine-6-carboxamide], the concentration for half-maximal inhibition (IC50) stood at 0.0015 µM.

Turning to `CC(C)Oc1cc2nc(C3CC3)cn2cc1C(=O)Nc1cccc(CC#N)n1` [Example 519, N-(6-(cyanomethyl)pyridin-2-yl)-2-cyclopropyl-7-isopropoxy-imidazo[1,2-a]pyridine-6-carboxamide], the midpoint of inhibition, the IC50, lay at 0.003 µM.

Turning to `CC12CCC(c3cn4cc(C(=O)Nc5ccn(CCF)n5)c(OC5CCC5)cc4n3)(CO1)C2` (stereo not shown) [Example 537, 7-Cyclobutoxy-N-(1-(2-fluoroethyl)-1H-pyrazol-3-yl)-2-(1-methyl-2-oxabicyclo[2.2.1]heptan-4-yl)imidazo[1,2-a]pyridine-6-carboxamide], half-maximal inhibition (IC50) was put at 0.0063 µM.

As to `COc1cccc(NC(=O)c2cn3cc(C4CCOCC4)nc3cn2)n1` [Example 81], the IC50 is 0.232 µM.

With `Cn1cc(-c2cccc(NC(=O)c3cn4cc(C56COC(C)(C5)C6)nc4cc3OC3CCC3)n2)cn1` [Example 520, 7-Cyclobutoxy-N-(6-(1-methyl-1H-pyrazol-4-yl)pyridin-2-yl)-2-(1-methyl-2-oxabicyclo[2.1.1]hexan-4-yl)imidazo[1,2-a]pyridine-6-carboxamide], the midpoint of inhibition, the IC50, lay at 0.0001 µM.

`Cc1cnc2c(NC(=O)c3cn4cc(C56CCC(C)(C5)OC6)nc4cc3OC3CCC3)cnn2c1` (stereo not shown) [Example 426, 7-Cyclobutoxy-2-(1-methyl-2-oxabicyclo[2.2.1]heptan-4-yl)-N-(6-methylpyrazolo[1,5-a]pyrimidin-3-yl)imidazo[1,2-a]pyridine-6-carboxamide] gave an IC50 of 0.0003 µM.

`CCOc1nc(C(=O)Nc2cc(F)cnc2OC)cn2cc([C@@H]3CCCOC3)nc12` (single isomer, unassigned) [Example 594]: the IC50 came to 0.0056 µM.

In turn, `CCOc1nc(C(=O)Nc2ccn(CC3CC3)n2)cn2cc(C34CCC(C)(C3)OC4)nc12` (stereo not shown) [Example 282, N-(1-(cyclopropylmethyl)-1H-pyrazol-3-yl)-8-ethoxy-2-(1-methyl-2-oxabicyclo[2.2.1]heptan-4-yl)imidazo[1,2-a]pyrazine-6-carboxamide] had a concentration for half-maximal inhibition (IC50) of 0.0087 µM.

Regarding `CCOc1nc(C(=O)Nc2cccc(Cl)c2)cn2cc(C34COC(C)(C3)C4)nc12` [Example 495, N-(3-chlorophenyl)-8-ethoxy-2-(1-methyl-2-oxabicyclo[2.1.1]hexan-4-yl)imidazo[1,2-a]pyrazine-6-carboxamide], the IC50 stood at 0.0088 µM.

For `Cn1ccc(NC(=O)c2cn3cc(C45COC(C)(C4)C5)nc3cc2OC2CC(C)(C)C2)n1` [Example 440, 7-(3,3-Dimethylcyclobutoxy)-N-(1-methyl-1H-pyrazol-3-yl)-2-(1-methyl-2-oxabicyclo[2.1.1]hexan-4-yl)imidazo[1,2-a]pyridine-6-carboxamide], the IC50 came to 0.0043 µM.

Turning to `CC(C)Oc1cc2nc([C@@]34CC[C@@](C)(C3)OC4)cn2cc1C(=O)Nc1cccn(C)c1=O` (single isomer, unassigned) [Example 620], the IC50 is 0.0006 µM.

`COc1cnc2c(NC(=O)c3cn4cc(C56COC(C)(C5)C6)nc4c(F)c3OC(C)C)cnn2c1` [Example 407, 8-Fluoro-7-isopropoxy-N-(6-methoxypyrazolo[1,5-a]pyrimidin-3-yl)-2-(1-methyl-2-oxabicyclo[2.1.1]hexan-4-yl)imidazo[1,2-a]pyridine-6-carboxamide] returned an IC50 of 0.0052 µM.

For the compound `CCOc1nc(C(=O)Nc2cccnc2OC)cn2cc([C@H]3CCOC3)nc12` (single isomer, unassigned) [Example 598], half-maximal inhibition (IC50) was put at 0.0041 µM.

For `CCOc1nc(C(=O)Nc2cccc3ccnn23)cn2cc(C34COC(C)(C3)C4)nc12` [Example 489, 8-Ethoxy-2-(1-methyl-2-oxabicyclo[2.1.1]hexan-4-yl)-N-(pyrazolo[1,5-a]pyridin-7-yl)imidazo[1,2-a]pyrazine-6-carboxamide], the midpoint of inhibition, the IC50, lay at 0.0031 µM.

Take `Cn1ccc(NC(=O)c2cn3cc([C@]45CC[C@](C)(C4)OC5)nc3cc2OC2CCCC2)n1` (single isomer, unassigned) [Example 633]: half-maximal inhibition (IC50) was put at 0.0016 µM.

`CC(C)Oc1nc2nc(C34COC(C)(C3)C4)cn2cc1C(=O)Nc1cnc2cccnn12` [Example 373, N-(imidazo[1,2-b]pyridazin-3-yl)-7-isopropoxy-2-(1-methyl-2-oxabicyclo[2.1.1]hexan-4-yl)imidazo[1,2-a]pyrimidine-6-carboxamide] came in with an IC50 of 0.0006 µM.

Take `CCOc1nc(C(=O)Nc2cccc(C(F)F)n2)cn2cc(C34CCC(C)(C3)OC4)nc12` (stereo not shown) [Example 274, N-(6-(difluoromethyl)pyridin-2-yl)-8-ethoxy-2-(1-methyl-2-oxabicyclo[2.2.1]heptan-4-yl)imidazo[1,2-a]pyrazine-6-carboxamide]: 0.0016 µM corresponded to half-maximal inhibition (IC50).

Consider `COCc1cc2nc(C34COC(C)(C3)C4)cn2cc1C(=O)Nc1ccn(C)n1` [Example 286, 7-(Methoxymethyl)-N-(1-methyl-1H-pyrazol-3-yl)-2-(1-methyl-2-oxabicyclo[2.1.1]hexan-4-yl)imidazo[1,2-a]pyridine-6-carboxamide], for which the IC50 was 5.98 µM.

`CC(C)Oc1cc2nc(C34CCC(C)(C3)OC4)cn2cc1C(=O)Nc1cnn2cccnc12` (stereo not shown) [Example 417, 7-Isopropoxy-2-(1-methyl-2-oxabicyclo[2.2.1]heptan-4-yl)-N-(pyrazolo[1,5-a]pyrimidin-3-yl)imidazo[1,2-a]pyridine-6-carboxamide]: inhibition was half-maximal at 0.0002 µM (IC50).

Consider `CC(C)Oc1cc2nc(C3CC3)cn2cc1C(=O)Nc1cccc(C#N)n1` [Example 638, N-(6-cyanopyridin-2-yl)-2-cyclopropyl-7-isopropoxyimidazo[1,2-a]pyridine-6-carboxamide], for which the IC50 stood at 0.0045 µM.

`COc1cc2nc(C3CCOCC3)cn2cc1C(=O)Nc1cccc(C)n1` [Example 116]: the IC50 was found to be 0.0106 µM.

The test is the same for the next values; noted with them: IRAK4 Biochemical Assay (1 mM ATP, 2 h) IC50 (μM), 1 mM ATP, 2 h, 100 pM IRAK4.
`CC(C)Oc1cc2nc(C34COC(C)(C3)C4)cn2cc1C(=O)Nc1ccn(C2CCCC2)n1` [Example 315, N-(1-cyclopentyl-1H-pyrazol-3-yl)-7-isopropoxy-2-(1-methyl-2-oxabicyclo[2.1.1]hexan-4-yl)imidazo[1,2-a]pyridine-6-carboxamide trifluoroacetate]: the IC50 was 0.0045 µM.

Regarding `Cc1cnc2c(NC(=O)c3cn4cc(C5CC5)nc4cc3OC(C)C)cnn2c1` [Example 280, 2-Cyclopropyl-7-isopropoxy-N-(6-methylpyrazolo[1,5-a]pyrimidin-3-yl)imidazo[1,2-a]pyridine-6-carboxamide trifluoroacetate], it took 0.0019 µM to reach half-maximal inhibition (IC50).

As to `COc1cccc(NC(=O)c2cn3cc(C4C5CCOCC54)nc3cc2OC)n1` (stereo not shown) [Example 25], the IC50 turned out to be 0.0031 µM.

`CC(C)Oc1cc2nc(C34COC(C)(C3)C4)c(F)n2cc1C(=O)Nc1ccn(C)n1` [Example 327, 3-Fluoro-7-isopropoxy-N-(1-methyl-1H-pyrazol-3-yl)-2-(1-methyl-2-oxabicyclo[2.1.1]hexan-4-yl)imidazo[1,2-a]pyridine-6-carboxamide trifluoroacetate]: inhibition was half-maximal at 0.0372 µM (IC50).

Compound `COc1cccc(NC(=O)c2cn3cc(C45COC(CF)(C4)C5)nc3cc2OC)n1` [Example 7] gave an IC50 of 0.0166 µM.

Compound `COc1ccc2ncc(NC(=O)c3cn4cc(C56COC(C)(C5)C6)nc4nc3OC(C)C)n2n1` [Example 308, 7-Isopropoxy-N-(6-methoxyimidazo[1,2-b]pyridazin-3-yl)-2-(1-methyl-2-oxabicyclo[2.1.1]hexan-4-yl)imidazo[1,2-a]pyrimidine-6-carboxamide trifluoroacetate] had an IC50 of 0.002 µM.

Compound `CCOc1cc2nc(C3(OC)CC3)cn2cc1C(=O)Nc1cccc(C(F)F)n1` [Example 390, N-(6-(difluoromethyl)pyridin-2-yl)-7-ethoxy-2-(1-methoxy-cyclopropyl)imidazo[1,2-a]pyridine-6-carboxamide hydrochloride] registered an IC50 of 0.009 µM.

In turn, `COc1nc(C(=O)Nc2cccc3c2OCCC3)cn2cc(C3CCOCC3)nc12` [Example 205, N-chroman-8-yl-8-methoxy-2-tetrahydropyran-4-yl-imidazo[1,2-a]pyrazine-6-carboxamide trifluoroacetate] displayed an IC50 of 0.0341 µM.

(Values after patent US20230087118A1, “IMIDAZO[1,2-a][sequence] DERIVATIVES AND THEIR USE IN THE TREATMENT OF DISEASE” (priority 2019, published 2023).)
